Assay results from patent US20260242405A1, “N-DERIVATIZED SIALIC ACIDS AND RELATED SIALOSIDES” (THE REGENTS OF THE UNIVERSITY OF CALIFORNIA, priority 2023, published 2026).
Read-outs that look alike come from different tables or passages of the source.

Legend:
H1N1/BR18 virus = conditions: virus in egg allantoic fluid, streptavidin plates or Dynabeads
N1-BR18 = conditions: read-out: KD for the interaction of N1-BR18
[1] = test system: NAs from both IAVs and IBVs
Experimental: Enzyme-linked immunosorbent assays (ELISA). These assays were carried out in duplicates in 384-well NeutrAvidin-coated plates. The wells were washed with 3×80 μL of washing buffer (1× PBS buffer with 0.05% tween-20) and then were incubated with biotinylated glycans (10 μM, 20 μL) at 4° C. for overnight. Then the wells were washed with 3×80 μL of washing buffer and blocked with 60 μL of blocking buffer (1× PBS buffer with 0.1% BSA). The wells were then washed with 3×80 μL of washing buffer, and NA (10 μg/mL, 20 μL) was added to each well. The samples were incubated at 4° C. for 30 minutes. The wells were then washed with 3×80 μL of washing buffer, and HRP-conjugated anti-His or anti-Strep antibodies (0.1 μg/mL or with proper dilution using 1× PBS buffer with 0.1% BSA, 20 μL) were added. The samples were incubated at 4° C. for 30 minutes.

[2] = target: NB-Phu13 (IBV neuraminidase) (Influenza B virus, UniProt A0A1S5RAG6); test: Fluorescence-based inhibition assay (substrate Neu5Acα2-3GalβMU, β-galactosidase coupled); type: biochemical, influenza B virus B/Phuket/3073/2013; conditions: read-out: percentage inhibition against NB-Phu13
[3] = target: N2-Kan17 (IAV neuraminidase) (Influenza A virus, UniProt A0A193ACB1); test: as above; type: biochemical, influenza A virus A/Kansas/14/2017 (H3N2); conditions: read-out: percentage inhibition against N2-Kan17
SpNanA (sialidase) = target: T1, SpNanA (sialidase) (Streptococcus pneumoniae, UniProt P62575); test: as above; type: biochemical; conditions: read-out: percent inhibition against SpNanA
T1 construct: made in house

[4] = target: NB-Aus21 (IBV neuraminidase) (Influenza B virus, UniProt A0A1X9RX69); test: biochemical; design: species or system influenza B virus B/Austria/1359417/2021; conditions: inhibitor 8.0 μM
[5] = target: N1-BR18 (IAV neuraminidase) (Influenza A virus, UniProt A0A0X9QTS2); test: Fluorescence-based inhibition assay (substrate Neu5Acα2-3GalβMU, β-galactosidase coupled); type: biochemical, influenza A virus A/Brisbane/02/2018 (H1N1)
[6] = test system: influenza NAs tested (N1-Vic19, N1-BR18, N2-Dar21, N2-Kan17, NB-NB-Aus21, NB-Phu13); test: Fluorescence-based inhibition assay, statements on the influenza NA panel; type: biochemical, influenza A and B viruses; conditions: for inhibition efficiency relative to 4NH2Neu5Ac2en (3), fold better: from IC50 values; for inhibitory activities against the influenza NAs tested (span over six NAs): inhibitor 8.0 μM, substrate Neu5Acα2-3GalβMU 8.0 μM; for inhibitory activity against influenza NAs, in words: Example 3 inhibition and IC50 assays
[7] = test system: human, bacterial, and influenza sialidases; test: High-throughput substrate specificity assay with sialyl GalβpNPs (A405 nm); type: biochemical, bacteria, influenza A and B viruses
[8] = test system: N1-Vic19 (IAV neuraminidase); test: Fluorescence-based inhibition assay (substrate Neu5Acα2-3GalβMU, β-galactosidase coupled); type: biochemical, influenza A virus A/Victoria/2570/2019 (H1N1); conditions: inhibitor 8.0 μM; Example 3, Table 4
[9] = target: T2, PmST1 WT (sialidase activity of α2-3-sialyltransferase 1 in the presence of CMP) (Pasteurella multocida, UniProt Q15KI8); test: biochemical; conditions: read-out: percent inhibition against PmST1 WT
T2 construct: made in house

[10] = target: T3, hNEU2 (human cytosolic sialidase) (Homo sapiens, UniProt Q9Y3R4); test: Fluorescence-based inhibition assay (substrate Neu5Acα2-3GalβMU, β-galactosidase coupled); type: biochemical; conditions: inhibitor 8.0 μM
T3 construct: made in house

[11] = target: N2-Dar21 (IAV neuraminidase) (Influenza A virus, UniProt A0A193ACB1); test: as above; type: biochemical, influenza A virus A/Darwin/9/2021 (H3N2); conditions: read-out: percentage inhibition against N2-Dar21
[12] = substrate Neu5Acα2-3GalβMU 8.0 μM, Example 2, Table 2, read-out: Percentage inhibition against NB-Aus21 (IBV)
[13] = Example 3, Table 4, read-out: percentage inhibition against NB-NB-Aus21
[14] = read-out: percentage inhibition against N1-BR18, inhibitor 8.0 μM, Example 3, Table 4
[15] = high-concentration enzyme conditions (10-fold, Vc sialidase 4-fold), 1 hour
[16] = high-concentration enzyme conditions, 14 hours
[17] = substrate Neu5Acα2-3GalβMU 8.0 μM, Example 2, Table 2, read-out: Percentage inhibition against hNEU2
[18] = Table 5, read-out: percent inhibition against hNEU2
[19] = read-out: Percentage inhibition against N1-BR18 (IAV), inhibitor 8.0 μM, substrate Neu5Acα2-3GalβMU 8.0 μM, Example 2, Table 2

T3 sequence (Q9Y3R4 whole entry): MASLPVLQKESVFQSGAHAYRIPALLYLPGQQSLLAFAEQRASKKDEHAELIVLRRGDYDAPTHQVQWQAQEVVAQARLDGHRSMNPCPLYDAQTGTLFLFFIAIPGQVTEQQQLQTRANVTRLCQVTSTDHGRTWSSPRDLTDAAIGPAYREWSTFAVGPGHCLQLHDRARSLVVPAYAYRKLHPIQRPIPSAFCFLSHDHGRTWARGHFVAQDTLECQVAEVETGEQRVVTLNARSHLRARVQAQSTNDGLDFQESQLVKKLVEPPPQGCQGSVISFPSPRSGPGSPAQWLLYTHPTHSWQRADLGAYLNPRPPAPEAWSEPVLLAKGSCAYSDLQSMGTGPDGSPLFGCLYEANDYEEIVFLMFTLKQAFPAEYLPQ

## 4-Guanidino-Neu5Acα2-3LacNAcβPorNH-PEG4-Biotin [Compound 10d]
H1N1/BR18 virus; listed as 4-Guanidino-Neu5Acα2-3LacNAcβProNH-PEG4-Biotin (10d)
  detection and retention of H1N1/BR18 virions by immobilized ligand: effective affinity ligand for detecting and purifying H1N1 virus
H1N1/BR18 virus; listed as 4-guanidino-Neu5Acα2-3LacNAcβProNH-PEG4-Biotin (10d)
  detection and retention of H1N1/BR18 virions by immobilized ligand: efficient in retaining H1N1/BR18 virions
Influenza NAs
  binding of influenza NAs to immobilized sialoside (BLI), in words: significantly stronger binders than other sialosides
N1-BR18
  Kd: 45.5 nM

## 4N3Neu5Acα2-3GalβProNH-PEG4-Biotin [Compound 11c]
[1]
  suitability as affinity ligand for immobilizing NAs (ELISA): not suitable affinity ligands

## 4N3Neu5Acα2-3LacNAcβProNH-PEG4-Biotin [Compound 11d]
[1]
  suitability as affinity ligand for immobilizing NAs (ELISA): not suitable affinity ligands
Influenza NAs
  binding of influenza NAs to immobilized sialoside (BLI), in words: Weak binding of N1-Vic19, N2-Dar21, and the IBV NAs

## 4NAcNeu5Acα2-3GalβProNH-PEG4-Biotin [Compound 12c]
[1]
  suitability as affinity ligand for immobilizing NAs (ELISA): not suitable affinity ligands

## 4NAcNeu5Acα2-3LacNAcβProNH-PEG4-Biotin [Compound 12d]
[1]
  suitability as affinity ligand for immobilizing NAs (ELISA): not suitable affinity ligands
Influenza NAs
  binding of influenza NAs to immobilized sialoside (BLI), in words: weak binding of N1-Vic19 and N2-Dar21

## 4NH2Neu5Acα2-3LacNAcβPorNH-PEG4-Biotin [Compound 9d]
Influenza NAs
  binding of influenza NAs to immobilized sialoside (BLI), in words: significantly stronger binders than other sialosides

## CC(=O)N[C@@H]1C(NC(=N)N)C[C@](OC2C(O)[C@H](Oc3ccc([N+](=O)[O-])cc3)OC(CO)[C@@H]2O)(C(=O)O)OC1[C@H](O)[C@H](O)CO (stereo partly shown) [4-Guanidino-Neu5Acα2-3GalβpNP]
[2]
  inhibition at 8 µM: 80.1%
[3]
  inhibition at 8 µM: 94.9%
SpNanA (sialidase)
  inhibition at 8 µM: 0.2 ± 0.7%
[4]; [12]
  inhibition at 8 µM: 86%
[4]; [13]
  inhibition at 8 µM: 84.2%
[5]; [14]
  inhibition at 8 µM: 97.9%
[6]; against N1-Vic19 and N1-BR18
  inhibition efficiency relative to 4NH2Neu5Ac2en (3), fold better: about 4 fold
[6]; against N2-Kan17 and N2-Dar21
  inhibition efficiency relative to 4NH2Neu5Ac2en (3), fold better: about 10 fold
[6]
  inhibitory activities against the influenza NAs tested (span over six NAs): 80-98%
[7]; [15]
  cleavage by sialidases: very poor substrates for the influenza NAs tested
[7]; [16]
  cleavage by sialidases: selectively by influenza virus NAs
[8]
  percentage inhibition against N1-Vic19: 98.2%
[9]
  inhibition at 8 µM: 26.1 ± 0.1%
[10]; [17]
  inhibition at 8 µM: 0%
[10]; [18]
  inhibition at 8 µM: 0%
[11]
  inhibition at 8 µM: 97%

## CC(=O)N[C@H]1[C@H]([C@H](O)[C@H](O)CO)O[C@@](OC[C@H]2O[C@@H](Oc3ccc([N+](=O)[O-])cc3)[C@H](O)[C@@H](O)[C@H]2O)(C(=O)O)C[C@@H]1NC(=N)N [4-Guanidino-Neu5Acα2-6GalβpNP]
[2]
  inhibition at 8 µM: 78.9%
[3]
  inhibition at 8 µM: 78%
SpNanA (sialidase)
  inhibition at 8 µM: 6.4 ± 0.3%
[4]; [12]
  inhibition at 8 µM: 69%
[4]; [13]
  inhibition at 8 µM: 66.6%
[5]; [19]
  inhibition at 8 µM: 90%
[5]; [14]
  inhibition at 8 µM: 92.8%
[6]
  inhibitory activity against influenza NAs, in words: generally a weaker NA inhibitor than its α2-3-sialyl linked counterpart
  inhibitory activities against the influenza NAs tested (span over six NAs): 67-93%
[7]; [15]
  cleavage by sialidases: very poor substrates for the influenza NAs tested
[7]; [16]
  cleavage by sialidases: selectively by influenza virus NAs
[8]
  percentage inhibition against N1-Vic19: 93.1%
[9]
  inhibition at 8 µM: 31.7 ± 13.7%
[10]; [17]
  inhibition at 8 µM: 0%
[10]; [18]
  inhibition at 8 µM: 0%
[11]
  inhibition at 8 µM: 81.5%

## CC(=O)N[C@@H]1C(N)C[C@](OCC2O[C@@H](Oc3ccc([N+](=O)[O-])cc3)C(O)C(O)[C@H]2O)(C(=O)O)OC1[C@H](O)[C@H](O)CO (stereo partly shown) [4NH2Neu5Acα2-6GalβpNP]
[2]
  inhibition at 8 µM: 9.8%
[3]
  inhibition at 8 µM: 1.5%
SpNanA (sialidase)
  inhibition at 8 µM: 4.4 ± 9.6%
[4]; [12]
  inhibition at 8 µM: 36%
[4]; [13]
  inhibition at 8 µM: 13.5%
[5]; [19]
  inhibition at 8 µM: 15%
[5]; [14]
  inhibition at 8 µM: 0.7%
[6]
  inhibitory activity against influenza NAs, in words: insignificant against the N1 or N2 NAs tested
[7]; [15]
  cleavage by sialidases: very poor substrates for the influenza NAs tested
[7]; [16]
  cleavage by sialidases: weakly cleaved off by both SpNanA and some influenza virus NAs
[8]
  percentage inhibition against N1-Vic19: 0.4%
[9]
  inhibition at 8 µM: 35.7 ± 19.9%
[10]; [17]
  inhibition at 8 µM: 0%
[10]; [18]
  inhibition at 8 µM: 0%
[11]
  inhibition at 8 µM: 2.9%

## GalβProNH-PEG4-Biotin [GalβProNH-PEG4-Biotin (19), reference compound]
[1]
  suitability as affinity ligand for immobilizing NAs (ELISA): not suitable affinity ligands

## LacNAcβProNH-PEG4-Biotin [LacNAcβProNH-PEG4-Biotin (20), reference compound]
H1N1/BR18 virus
  detection and retention of H1N1/BR18 virions by immobilized ligand: did not retain influenza virions
[1]
  suitability as affinity ligand for immobilizing NAs (ELISA): not suitable affinity ligands
